One assay has as its target T1, rBF4306 (FucT) (Bacteroides fragilis, UniProt Q5L7H9).
T1 construct: gene BF9343_4192; tag kept; partly degraded
The assay can be described thus: TLC and ESI-MS of fucosylated product. The conditions noted are these: 5 mM MgCl2, 5 mM MnCl2, pH 7.4, 37 °C, overnight. In kind it is biochemical. The text has this:
(§1) All three enzymes transferred L-Fuc to pNP-α-Gal

For the next assay, the target named is T2, rPhep_4048 (FucT) (Pedobacter heparinus, UniProt C6XWF0).
T2 construct: gene Phep_4048; tag kept; partly degraded
T2 sequence (C6XWF0 1-252): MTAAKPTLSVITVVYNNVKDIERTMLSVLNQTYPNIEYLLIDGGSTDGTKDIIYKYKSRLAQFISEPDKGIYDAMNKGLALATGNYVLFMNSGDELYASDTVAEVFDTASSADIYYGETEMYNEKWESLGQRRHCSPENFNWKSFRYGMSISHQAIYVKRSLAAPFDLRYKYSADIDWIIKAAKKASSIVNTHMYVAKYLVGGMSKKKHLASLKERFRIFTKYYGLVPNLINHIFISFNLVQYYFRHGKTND
The assay can be described thus: TLC and ESI-MS of fucosylated product. The conditions noted are these: donor; acceptor pNP-α-D-Gal 8 mM, 5 mM MgCl2, 5 mM MnCl2, pH 7.4, 37 °C, overnight. The assay is classed as biochemical.
From the text: as §1

T1 sequence (Q5L7H9 entry or part of it): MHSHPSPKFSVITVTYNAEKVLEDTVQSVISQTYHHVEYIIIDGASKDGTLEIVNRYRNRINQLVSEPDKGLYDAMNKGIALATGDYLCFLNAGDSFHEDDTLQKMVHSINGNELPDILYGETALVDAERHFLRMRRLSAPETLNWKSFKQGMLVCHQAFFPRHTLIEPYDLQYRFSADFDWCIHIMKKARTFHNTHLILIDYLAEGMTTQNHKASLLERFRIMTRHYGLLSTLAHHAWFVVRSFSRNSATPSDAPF

As for `C[C@@H]1O[C@H](OP(=O)(O)OP(=O)(O)OC[C@H]2O[C@@H](n3cnc4c(=O)[nH]c(N)nc43)[C@H](O)[C@@H]2O)[C@@H](O)[C@H](O)[C@@H]1O` [GDP-L-Fuc], the “TLC and ESI-MS of fucosylated product” value at rBF4306 (FucT) (donor, acceptor pNP-α-D-Glc 8 mM) is listed as “with GDP-L-Fuc serving as the Fuc donor. All three enzymes transferred L-Fuc to pNP-α-Gal”; at rPhep_4048 (FucT) it was “with GDP-L-Fuc serving as the Fuc donor. All three enzymes transferred L-Fuc to pNP-α-Gal”.

In the case of `O=[N+]([O-])c1ccc(O[C@H]2O[C@H](CO)[C@@H](O)[C@H](O)[C@H]2O)cc1` [pNP-α-D-Glc], the “TLC and ESI-MS of fucosylated product” value at rBF4306 (FucT) (2 mM GDP-L-Fuc, 8 mM acceptor) is on record as “rBF4306 demonstrated very low activity with all substrates; pNP-α-Glc was the best substrate”.

These data come from publication PMC8698959, “A Combination of Structural, Genetic, Phenotypic and Enzymatic Analyses Reveals the Importance of a Predicted Fucosyltransferase to Protein O-Glycosylation in the Bacteroidetes” (Biomolecules, 2021).
